This is an account of results in publication PMC10805311, “Pseudomonas aeruginosa two-component system CprRS regulates HigBA expression and bacterial cytotoxicity in response to LL-37 stress” (PLOS Pathogens, 2024).

The subject of assay [1] is WT P. aeruginosa. As to the kind of experiment: microbe, parasite or virus in culture. The format is cell-based. Conditions: 37°C; for MIC: without LL-37, LB medium, OD600 = 0.1, 24 h; for MIC (+ LL-37): antibiotic + LL-37 (LL-37 pretreatment), LB medium, 24 h. How it is done: (§1) The initial concentrations of meropenem, cephalosporin, tetracycline, gentamicin, ciprofloxacin, polymyxin B, and colistin are: 0.1 mg/mL, 0.02 mg/mL, 0.5 mg/mL, 0.16 mg/mL, 1 mg/mL, 0.1 mg/mL, and 0.1 mg/mL, all the antibiotics were 10 × gradient dilution with sterile PBS buffer. Overnight bacterial cultures of WT P. aeruginosa and mutants were re-inoculated into fresh LB medium supplemented at OD600 = 0.1, then 90 μL cultures and 10 μL antibiotic dilutions were added in a 96-well microtiter dish for 24 h at 37°C.

Assay [2] deals with P. aeruginosa PAO1 strain H103. Conditions: cited from earlier work. The source says: TCSs represent the most common signal-transduction cascades in bacteria, sensing external cues such as ions, peptides, and compounds [46, 47]. Canonical TCSs comprise a transmembrane sensor histidine kinase (HK) and an intracellular response regulator (RR). Upon binding to specific stimuli, the HK undergoes autophosphorylation and transfers the phosphoryl group to the RR, activating its transcription regulation ability to influence bacterial behavior. To date, over 60 TCSs have been identified in the P. aeruginosa PAO1 genome, they have been recognized as crucial players in various b ...

Assay [3] deals with full-length CprS (CprSFL). Description: Microscale thermophoresis (MST), full-length CprS. Conditions: 100 nM CprS, cationic peptides from 500 μM, 25°C 30 min. Type of assay: binding, P. aeruginosa. As for the experimental part:
The E. coli BL21 (DE3) strains harboring pET22b-cprS and pET22b-cprR were cultured at 37°C in LB medium and suppled with 0.4 mM IPTG as the OD600 reached to 0.8. The cultures were incubated at 16°C for an additional 14 h and the cells were collected and resuspended in buffer A (20 mM tris-HCl (pH 8.0), 150 mM NaCl). The cells were lysed by ultrasound and centrifuged at 15, 000 rpm for 20 min at 4°C. Then the supernatant was applied to Ni-agarose resins and eluted with buffer containing 300 mM imidazole. As for full-length CprS, the supernatant needed to be extracted by 2% ELUGENT Detergent and flow 0.02% DDM for elution. The target proteins were further purified via AKTA purifier using buffer A and concentrated to 12 mg/mL.
The 100 nM CprS with His-tag was labeled with Monolith His-Tag Labelling Kit RED-tris-NTA 2nd Generation Kit and the cationic peptides used in this work were diluted with PBST buffer gradient from 0.5 mM [34]. The proteins and cationic peptide dilutions were mixed and incubated at 25°C for 30 min and detected on a Monolith NT.115 instrument. The data were analyzed by NanoTemper Analysis 1.2.20 software.

The subject of assay [4] is cprR. Description: qRT-PCR, cprR transcription. The format is cell-based, P. aeruginosa. Conditions: oprL as normalizer. As for the experimental part:
(§2) Overnight bacterial cultures were subcultured in fresh LB medium to OD600 0.8 and the cells were collected by using Trizol. The cDNA was synthesized by using PrimeScript RT reagent Kit. 2 × SYBR qPCR Master Mix was used to perform qPCR assays. The reaction step was 2 × SYBR qPCR Master Mix (Without ROX) 10 μL, upstream Primer (10 μM) 0.4 μL, downstream Primer (10 μM) 0.4 μL, template cDNA 1 μg and ddH2O up to 20 μL. The qPCR procedure was set as: stage 1 (95°C 30 s, repeat once), stage 2 (95°C 10 s, 60°C 30 s, repeat for 40 times) and stage 3 (95°C 15 s, 60°C 1 min, 95°C 15 s, repeat 1 time). The oprL gene was used as a normalizer. The same method was used for mammalian cells, and 18 sRNA served as a normalizer.

Assay [5] relates to P. aeruginosa ΔcprS. The format is cell-based. Conditions: 37°C; for MIC (+ LL-37): antibiotic + LL-37 (LL-37 pretreatment), LB medium, 24 h; for MIC: without LL-37, LB medium, OD600 = 0.1, 24 h. How it is done: as §1
Assay [6] deals with P. aeruginosa ΔcprR. The format is cell-based. Conditions: 37°C; for MIC (+ LL-37): antibiotic + LL-37 (LL-37 pretreatment), LB medium, 24 h; for MIC: without LL-37, LB medium, OD600 = 0.1, 24 h. How it is done: as §1
Assay [7] concerns cprS. As to the kind of experiment: qRT-PCR, cprS transcription. The format is cell-based, P. aeruginosa. Conditions: oprL as normalizer. How it is done:
as §2

Assay [8] has as its target CprS periplasmic sensor domain CprSSD (residues 28-163) (Pseudomonas aeruginosa). As to the kind of experiment: MST; 100 nM His-tagged CprS labelled with Monolith His-Tag Labelling Kit RED-tris-NTA 2nd Generation; cationic peptides in 16 doubling dilutions from 500 uM (0.5 mM) in PBST; incubated at 25 C for 30 min; Monolith NT.115; repeated three times.
In assay [9] the target is full-length CprS (CprSFL), sensor histidine kinase of the two-component system CprRS (Pseudomonas aeruginosa). The description is as above.
For assay [10], the system named is CarSR system. Conditions: Vibrio cholerae; cited from earlier work. The source says:
In the field of microbiology and immunology, the interaction between host antimicrobial peptides and pathogenic bacteria has been a subject of extensive research. The success of bacterial infections depends on a delicate balance of signals exchanged between microbes and hosts. Cationic antimicrobial peptides, including defensins such as α-defensins, β-defensins, and cathelicidin LL-37, are crucial components of innate host defense against bacterial infections. Numerous studies have shown that LL-37 acts as a shield between the host and the external environment, preventing bact ...

The mark [11] stands for this setting: Pseudomonas aeruginosa, read-out: MIC.

In brackets after ≈: the same amount, converted by molar mass. Like-named read-outs stand apart in the source and are kept apart here. Residues, ends and D or L forms follow the SMILES beside them. No end group written: not given here.

`O=C(O)c1cn(C2CC2)c2cc(N3CCNCC3)c(F)cc2c1=O` [CIP, ciprofloxacin]: the MIC in assay [1] (setting [11]) was determined as 2 µg/mL (≈ 6.04 µM).
Same read-out and setting: with `CNC(C)C1CCC(N)C(OC2C(N)CC(N)C(OC3OCC(C)(O)C(NC)C3O)C2O)O1` (stereo not shown) [GM, Gentamicin] the figure was 12.5 µg/mL (≈ 26.2 µM); with `C[C@@H](O)[C@H]1C(=O)N2C(C(=O)O)=C(S[C@@H]3CN[C@H](C(=O)N(C)C)C3)[C@H](C)[C@H]12` [MEM, Meropenem], 10 µg/mL (≈ 26.1 µM).
With `CC[C@H](C)CCCCC(=O)N[C@@H](CCN)C(=O)N[C@H](C(=O)N[C@@H](CCN)C(=O)N[C@H]1CCNC(=O)[C@H]([C@@H](C)O)NC(=O)[C@H](CCN)NC(=O)[C@H](CCN)NC(=O)[C@H](CC(C)C)NC(=O)[C@@H](Cc2ccccc2)NC(=O)[C@H](CCN)NC1=O)[C@@H](C)O` [Polymyxin B] (HELM PEPTIDE1{[CC[C@H](C)CCCCC(=O)[*:2]].[Dab].T.[Dab].[Dab].[Dab].[dF].L.[Dab].[Dab].T}$PEPTIDE1,PEPTIDE1,5:R3-11:R2$$$V2.0; N-terminus assumed; bridges inferred), the CprRS-mediated adaptive resistance entry in assay [2] is “adaptive resistance”. Further, in assay [3], the “binding to CprS” value is “no binding was observed”. Besides, the “expression of cprR under Polymyxin B treatment” value in assay [4] is given as “no significant change in expression was observed”. Also, the “MIC (+ LL-37)” value in [5] is 1 µg/mL; in assay [6], 1 µg/mL; in assay [1] it was 64 µg/mL. Moreover, the results for the MIC in [5], in assay [6] and in [1] were 2 µg/mL (≈ 1.66 µM), 2 µg/mL (≈ 1.66 µM) and 4 µg/mL (≈ 3.32 µM), respectively. The “expression of cprS under Polymyxin B treatment” value in [7] is recorded as “no significant change in expression was observed”.
As to `CN(C)[C@@H]1C(O)=C(C(N)=O)C(=O)[C@@]2(O)C(O)=C3C(=O)c4c(O)cccc4[C@@](C)(O)[C@H]3C[C@@H]12` [TE, Tetracycline], the MIC in assay [1] (setting [11]) worked out at 3.2 µg/mL (≈ 7.2 µM).
As to `CC[C@H](C)CCCCC(=O)N[C@@H](CCN)C(=O)N[C@H](C(=O)N[C@@H](CCN)C(=O)N[C@H]1CCNC(=O)[C@H]([C@@H](C)O)NC(=O)[C@H](CCN)NC(=O)[C@H](CCN)NC(=O)[C@H](CC(C)C)NC(=O)[C@@H](CC(C)C)NC(=O)[C@H](CCN)NC1=O)[C@@H](C)O` [colistin, Colistin] (HELM PEPTIDE1{[CC[C@H](C)CCCCC(=O)[*:2]].[Dab].T.[Dab].[Dab].[Dab].[dL].L.[Dab].[Dab].T}$PEPTIDE1,PEPTIDE1,5:R3-11:R2$$$V2.0; N-terminus assumed; bridges inferred), the “binding to CprS” value in assay [3] is on record as “no binding was observed”. Further, the “MIC (+ LL-37)” value stood at 0.5 µg/mL in [5], 1 µg/mL in assay [6] and 64 µg/mL in assay [1]. Further, the MIC in assay [5] was 1 µg/mL (≈ 0.855 µM); in [6], 1 µg/mL (≈ 0.855 µM); in [1], 4 µg/mL (≈ 3.42 µM).
Regarding human host defense peptide LL-37, the Kd in assay [8] stood at 5.34 µM; in assay [9] it was 1.41 µM.
Turning to “indolicidin: cationic peptide antibiotic (ILPWKWPWWPWRR; ends and bridges not checked; UniProt P33046 131-143, looked up)”, the CprRS-mediated adaptive resistance entry in assay [2] is “adaptive resistance”.

B1: α-defensin 5: human enteric α-defensin 5 (peptide, UniProt Q01523 20-94, looked up)
Defensin alpha 5: ESLQERADEATTQKQSGEDNQDLAISFAGNGLSALRTSGSQARATCYCRTGRCATRESLSGVCEISGRLYRLCCR
modifications: Defensin-5
B1: the “sensing by CarSR” value in assay [10] was “sense human enteric α-defensin 5 and LL-37 to promote bacterial pathogenicity”.
